The values that follow come from patent US8569292B2, “Cyclic inhibitors of 11β-hydroxysteroid dehydrogenase 1” (Vitae Pharmaceuticals, Inc., priority 2008, dated 2013).

Series [1] has as its target T1, 11β-HSD1 (Homo sapiens, UniProt P28845). Nature of the series: Biological Test Example 4: microsomal 11β-HSD1 in the presence of 50% human plasma. As to conditions: for Shift: IC50 in Test Example 4 divided by IC50 in Test Example 1.
Another series concerns the target CYP3A4 (Homo sapiens, UniProt P08684). Nature of the series: Biological Test Example 6: CYP3A4 inhibition (erythromycin N-demethylation). Type of series: in vitro ADME.
For series [2], the target named is T1, 11β-HSD1. Nature of the series: biochemical. The settings on record: for inhibition at 0.1 µM: read-out: Average % inhibition at 100 nM.
The nature of series [3]: Biological Test Example 5: fraction unbound in human plasma (equilibrium dialysis). Format: in vitro ADME. As for the experimental part: Plasma protein binding of compounds was determined with Equilibrium Dialysis of spiked plasma against compound free dextrane buffer using a dialysis membrane with mass cutoff of 5000 Da. Compound concentrations in plasma and buffer after incubation were measured using HPLC/Mass spectrometry.
(In general: In equilibrium dialysis free small molecules cross a membrane that holds back macromolecules.)

The target of the next series is CYP2C19 (Homo sapiens, UniProt P33261). Nature of the series: Biological Test Example 8: CYP2C19 inhibition (diazepam N-demethylation). Format: in vitro ADME.
Chain of CYP2C19 (P33261 whole entry): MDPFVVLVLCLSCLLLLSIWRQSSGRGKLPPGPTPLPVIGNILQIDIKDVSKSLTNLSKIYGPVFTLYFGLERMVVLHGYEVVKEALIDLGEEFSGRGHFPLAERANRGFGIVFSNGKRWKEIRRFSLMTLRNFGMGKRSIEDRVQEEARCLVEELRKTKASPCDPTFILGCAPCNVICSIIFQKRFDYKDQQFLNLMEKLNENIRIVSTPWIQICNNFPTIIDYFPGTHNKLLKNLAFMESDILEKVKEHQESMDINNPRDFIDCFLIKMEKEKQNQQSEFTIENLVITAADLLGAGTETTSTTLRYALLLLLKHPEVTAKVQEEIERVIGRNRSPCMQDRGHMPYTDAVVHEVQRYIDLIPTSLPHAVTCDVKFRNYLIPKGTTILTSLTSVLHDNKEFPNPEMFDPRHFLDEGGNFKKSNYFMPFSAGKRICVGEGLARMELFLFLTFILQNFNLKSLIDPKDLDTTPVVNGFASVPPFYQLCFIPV
Series [4] deals with T2, CYP2C9 (Homo sapiens, UniProt P11712).
T2 construct: purchased Invitrogen 2859; host or cells: insect cells infected with baculovirus (microsomes)
T2 sequence (P11712 whole entry): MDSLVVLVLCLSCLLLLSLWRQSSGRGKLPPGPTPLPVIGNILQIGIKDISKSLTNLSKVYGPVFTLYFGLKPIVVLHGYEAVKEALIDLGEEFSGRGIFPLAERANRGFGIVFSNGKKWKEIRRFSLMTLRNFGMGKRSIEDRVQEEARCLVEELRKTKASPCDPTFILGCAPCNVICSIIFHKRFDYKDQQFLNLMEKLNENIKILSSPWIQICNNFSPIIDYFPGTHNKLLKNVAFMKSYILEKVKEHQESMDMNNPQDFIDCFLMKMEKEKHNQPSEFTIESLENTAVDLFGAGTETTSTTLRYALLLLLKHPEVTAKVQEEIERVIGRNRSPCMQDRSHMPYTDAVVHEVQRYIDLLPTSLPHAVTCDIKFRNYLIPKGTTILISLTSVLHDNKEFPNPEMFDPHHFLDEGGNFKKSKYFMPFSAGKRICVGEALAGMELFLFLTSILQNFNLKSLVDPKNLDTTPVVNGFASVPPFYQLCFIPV
Nature of the series: Biological Test Example 7: CYP2C9 inhibition (naproxen O-demethylation). Format: in vitro ADME.

Series [5] deals with T2, CYP2C9. Nature of the series: Biological Test Example 9: CYP2C9 inhibition (Invitrogen kit, fluorogenic OOMR). Type of series: in vitro ADME.
Setting [6] is: Biological Test Example 1 IC50 (nM).
Where [7] appears, read: IC50 Range, Biological Test Example 1.

Chain of CYP3A4 (P08684 whole entry): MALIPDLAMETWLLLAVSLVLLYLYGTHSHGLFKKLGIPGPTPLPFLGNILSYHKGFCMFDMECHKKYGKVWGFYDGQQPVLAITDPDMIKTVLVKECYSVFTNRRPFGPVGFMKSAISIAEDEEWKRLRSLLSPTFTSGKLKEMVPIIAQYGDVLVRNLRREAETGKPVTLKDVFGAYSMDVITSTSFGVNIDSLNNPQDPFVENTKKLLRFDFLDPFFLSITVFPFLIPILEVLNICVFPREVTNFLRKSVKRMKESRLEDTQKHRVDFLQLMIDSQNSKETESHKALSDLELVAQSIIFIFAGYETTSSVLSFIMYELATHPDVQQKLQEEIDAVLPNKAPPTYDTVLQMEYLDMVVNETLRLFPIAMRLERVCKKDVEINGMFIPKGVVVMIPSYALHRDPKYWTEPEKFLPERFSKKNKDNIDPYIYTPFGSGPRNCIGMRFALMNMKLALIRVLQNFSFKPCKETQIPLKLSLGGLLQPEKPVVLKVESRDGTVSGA
T1 sequence (P28845 whole entry): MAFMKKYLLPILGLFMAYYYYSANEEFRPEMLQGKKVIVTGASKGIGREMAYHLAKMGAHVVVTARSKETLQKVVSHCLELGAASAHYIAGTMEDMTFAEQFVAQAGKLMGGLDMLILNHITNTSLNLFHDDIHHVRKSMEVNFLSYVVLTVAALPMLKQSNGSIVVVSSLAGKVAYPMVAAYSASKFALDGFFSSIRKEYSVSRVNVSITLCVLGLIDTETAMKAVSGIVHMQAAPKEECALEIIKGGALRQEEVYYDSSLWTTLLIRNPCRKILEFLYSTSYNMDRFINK

A word on the IC50: it is the concentration that inhibits the measured activity by half. What is called inhibition is the change of the read-out against control, counted positive when it falls. For the molecule `COc1ccc(-c2ccc([C@H](C)N3CC[C@](CCC(N)=O)(c4ccccc4)OC3=O)cc2)cn1` [EXAMPLE 52, 3-((R)-3-((S)-1-(4-(6-methoxypyridin-3-yl)phenyl)ethyl)-2-oxo-6-phenyl-1,3-oxazinan-6-yl)propanamide], the concentration for half-maximal inhibition (IC50) on 11β-HSD1 [1] is 0.0105 µM; at CYP3A4, more than 50 µM; on 11β-HSD1 [2] (setting [6]) it was 1.1 nM; against 11β-HSD1 [2] (setting [7]), less than 100 nM. Moreover, the inhibition at 0.1 µM at 11β-HSD1 [2] amounted to 94.5%. For the same molecule, in series [3], the “Biological Test Example 5 (%)” value is reported as 1.8%.

Consider `C[C@@H](c1ccc(-c2ccccn2)cc1)N1CC[C@](CCCNS(C)(=O)=O)(c2ccc(F)cc2)OC1=O` [EXAMPLE 61, N-(3-((R)-6-(4-fluorophenyl)-2-oxo-3-((S)-1-(4-(pyridin-2-yl)phenyl)ethyl)-1,3-oxazinan-6-yl)propyl)methanesulfonamide], for which the IC50 was 0.0136 µM on 11β-HSD1 [1]; 40 µM on CYP2C19; 23 µM against CYP2C9 [4]; 29.2 µM on CYP3A4; 0.7 nM at 11β-HSD1 [2] (setting [6]); less than 100 nM at 11β-HSD1 [2] (setting [7]). The half-maximal inhibitory concentration (IC50) at CYP2C9 [5] stood at 9.9 µM. For the same molecule, the Shift at 11β-HSD1 [1] was 18.2. For the same molecule, at 11β-HSD1 [2], the inhibition at 0.1 µM came out at 96.2%.

`Cc1cc(-c2ccc([C@H](C)N3CC[C@](CC(C)(C)O)(c4ccc(F)cc4)OC3=O)cc2)ccn1` [EXAMPLE 76, (S)-6-(4-fluorophenyl)-6-(2-hydroxy-2-methylpropyl)-3-((S)-1-(4-(2-methylpyridin-4-yl)phenyl)ethyl)-1,3-oxazinan-2-one]: the half-maximal inhibitory concentration (IC50) was 0.0069 µM at 11β-HSD1 [1]; 8.5 µM at CYP2C19; 2.9 µM against CYP2C9 [4]; 5 µM against CYP3A4; 0.8 nM at 11β-HSD1 [2] (setting [6]); less than 100 nM at 11β-HSD1 [2] (setting [7]). Further, inhibition on CYP2C9 [5] was half-maximal at 7.9 µM (IC50). Besides, the Shift at 11β-HSD1 [1] turned out to be 8.8. Besides, the inhibition at 0.1 µM on 11β-HSD1 [2] came to 98.7%.

Regarding `Cc1cc(-c2ccc([C@H](C)N3CC[C@](CCCNS(C)(=O)=O)(c4ccc(F)cc4)OC3=O)cc2)ccn1` [EXAMPLE 80, N-(3-((R)-6-(4-fluorophenyl)-3-((S)-1-(4-(2-methylpyridin-4-yl)phenyl)ethyl)-2-oxo-1,3-oxazinan-6-yl)propyl)methanesulfonamide], the 50% inhibitory concentration (IC50) at 11β-HSD1 [1] was 0.0055 µM; on CYP2C19, 13.2 µM; on CYP2C9 [4], 11.2 µM; on CYP3A4, 13 µM; against 11β-HSD1 [2] (setting [6]), 1 nM; against 11β-HSD1 [2] (setting [7]), less than 100 nM. The midpoint of inhibition at CYP2C9 [5], the IC50, lay at 8.9 µM. In addition, the Shift on 11β-HSD1 [1] is 5.4. The inhibition at 0.1 µM at 11β-HSD1 [2] came to 96%.

Consider `COc1ccc(-c2ccc([C@H](C)N3CC[C@](CC(C)(C)O)(c4ccccc4)OC3=O)cc2)cn1` [EXAMPLE 93, (S)-6-(2-hydroxy-2-methylpropyl)-3-((S)-1-(4-(6-methoxypyridin-3-yl)phenyl)ethyl)-6-phenyl-1,3-oxazinan-2-one], for which the half-maximal inhibitory concentration (IC50) against CYP2C19 is 11.4 µM; at CYP2C9 [4], 8 µM; on CYP3A4, 11.6 µM; on CYP2C9 [5], 8 µM.

Consider `Cc1cc(-c2ccc([C@H](C)N3CC[C@](CC(C)(C)O)(c4ccccc4)OC3=O)cc2)ccn1` [EXAMPLE 97, (S)-6-(2-hydroxy-2-methylpropyl)-3-((S)-1-(4-(2-methylpyridin-4-yl)phenyl)ethyl)-6-phenyl-1,3-oxazinan-2-one], for which the IC50 on 11β-HSD1 [1] is 0.0108 µM; against CYP2C19, 19.5 µM; against CYP2C9 [4], 11.2 µM; against CYP3A4, 8.9 µM; on 11β-HSD1 [2] (setting [6]), 1 nM; on 11β-HSD1 [2] (setting [7]), less than 100 nM. On CYP2C9 [5], this molecule had an IC50 of 9.7 µM. The Shift at 11β-HSD1 [1] is listed as 11.1. Besides, on 11β-HSD1 [2], the inhibition at 0.1 µM came to 98.8%.

Take `C[C@@H](c1ccc(-c2ccncn2)cc1)N1CC[C@](CC(C)(C)O)(c2ccccc2)OC1=O` [EXAMPLE 131, (S)-6-(2-hydroxy-2-methylpropyl)-6-phenyl-3-((S)-1-(4-(pyrimidin-4-yl)phenyl)ethyl)-1,3-oxazinan-2-one]: the concentration for half-maximal inhibition (IC50) at 11β-HSD1 [1] was 0.0051 µM; against CYP2C19 it was 2.6 µM; at CYP2C9 [4], 14 µM; on CYP3A4, 5.6 µM; on 11β-HSD1 [2] (setting [6]) it was 2.2 nM; on 11β-HSD1 [2] (setting [7]) it was less than 100 nM. Also, on CYP2C9 [5], the 50% inhibitory concentration (IC50) is 11.2 µM. Also, on 11β-HSD1 [2], the inhibition at 0.1 µM turned out to be 98.5%.

On to `C[C@@H](c1ccc(-c2ccc(C#N)cn2)cc1)N1CC[C@](CC(C)(C)O)(c2ccccc2)OC1=O` [EXAMPLE 138, 6-(4-((S)-1-((S)-6-(2-hydroxy-2-methylpropyl)-2-oxo-6-phenyl-1,3-oxazinan-3-yl)ethyl)phenyl)nicotinonitrile], for which the figures for the IC50 on CYP2C19, against CYP2C9 [4] and on CYP3A4 were 24.2 µM, 22.2 µM and 12.7 µM, respectively. Further, the “Biological Test Example 5 (%)” value in series [3] is 2%.

For `Cc1cc(-c2ccc([C@H](C)N3CC[C@](CC(C)(C)O)(c4ccccc4)OC3=O)cc2)cc(C)n1` [EXAMPLE 139, (S)-3-((S)-1-(4-(2,6-dimethylpyridin-4-yl)phenyl)ethyl)-6-(2-hydroxy-2-methylpropyl)-6-phenyl-1,3-oxazinan-2-one], the IC50 against CYP2C19 was 18.2 µM; against CYP2C9 [4], 21.4 µM; against CYP3A4, more than 50 µM; against CYP2C9 [5] it was 9.9 µM.

For `C[C@@H](c1ccc(-c2ccc(C(=O)N(C)C)cn2)cc1)N1CC[C@](CC(C)(C)O)(c2ccccc2)OC1=O` [EXAMPLE 156, 6-(4-((S)-1-((S)-6-(2-hydroxy-2-methylpropyl)-2-oxo-6-phenyl-1,3-oxazinan-3-yl)ethyl)phenyl)-N,N-dimethylnicotinamide], the concentration for half-maximal inhibition (IC50) on 11β-HSD1 [1] was 0.0101 µM; against CYP2C19, 47.6 µM; against CYP2C9 [4], more than 50 µM; against CYP3A4, more than 50 µM; against 11β-HSD1 [2] (setting [6]) it was 1.1 nM; at 11β-HSD1 [2] (setting [7]) it was less than 100 nM. Also, the inhibition at 0.1 µM at 11β-HSD1 [2] was found to be 96.4%.

In the case of `C[C@@H](c1ccc(-c2ncc(C(=O)N(C)C)s2)cc1)N1CC[C@](CC(C)(C)O)(c2ccccc2)OC1=O` [EXAMPLE 158, 2-(4-((S)-1-((S)-6-(2-hydroxy-2-methylpropyl)-2-oxo-6-phenyl-1,3-oxazinan-3-yl)ethyl)phenyl)-N,N-dimethylthiazole-5-carboxamide], the IC50 was 0.0129 µM at 11β-HSD1 [1]; more than 50 µM against CYP2C19; more than 50 µM against CYP2C9 [4]; more than 50 µM against CYP3A4; 2.1 nM against 11β-HSD1 [2] (setting [6]); less than 100 nM against 11β-HSD1 [2] (setting [7]). For the same molecule, the inhibition at 0.1 µM at 11β-HSD1 [2] came to 95.7%.

For the molecule `CCOc1ncc(-c2ccc([C@H](C)N3CC[C@](CC(C)(C)O)(c4ccccc4)OC3=O)cc2)cc1C` [EXAMPLE 160, (S)-3-((S)-1-(4-(6-ethoxy-5-methylpyridin-3-yl)phenyl)ethyl)-6-(2-hydroxy-2-methylpropyl)-6-phenyl-1,3-oxazinan-2-one], the 50% inhibitory concentration (IC50) was 0.0174 µM on 11β-HSD1 [1]; 1.7 µM at CYP2C19; 2.3 µM against CYP2C9 [4]; 4.5 µM at CYP3A4; 1 nM against 11β-HSD1 [2] (setting [6]); less than 100 nM against 11β-HSD1 [2] (setting [7]). Also, the Shift on 11β-HSD1 [1] was 17.5. The inhibition at 0.1 µM at 11β-HSD1 [2] is 95%.

Take `C[C@@H](c1ccc(-c2ccc(C(=O)NC3CC3)cn2)cc1)N1CC[C@](CC(C)(C)O)(c2ccccc2)OC1=O` [EXAMPLE 161, N-cyclopropyl-6-(4-((S)-1-((S)-6-(2-hydroxy-2-methylpropyl)-2-oxo-6-phenyl-1,3-oxazinan-3-yl)ethyl)phenyl)nicotinamide]: the half-maximal inhibitory concentration (IC50) is 0.0039 µM on 11β-HSD1 [1]; 10.5 µM at CYP2C19; 36 µM on CYP2C9 [4]; more than 50 µM on CYP3A4; 1.1 nM at 11β-HSD1 [2] (setting [6]); less than 100 nM against 11β-HSD1 [2] (setting [7]). At 11β-HSD1 [2], the inhibition at 0.1 µM worked out at 95.1%.

On to `C[C@@H](c1ccc(-c2ccc(C(=O)NC(C)(C)C)cn2)cc1)N1CC[C@](CC(C)(C)O)(c2ccccc2)OC1=O` [EXAMPLE 163, N-tert-butyl-6-(4-((S)-1-((S)-6-(2-hydroxy-2-methylpropyl)-2-oxo-6-phenyl-1,3-oxazinan-3-yl)ethyl)phenyl)nicotinamide], for which the IC50 on 11β-HSD1 [1] is 0.0059 µM; at CYP2C19, 10.9 µM; at CYP2C9 [4], 6.9 µM; against CYP3A4, 15.9 µM; against 11β-HSD1 [2] (setting [6]), 1.6 nM; against 11β-HSD1 [2] (setting [7]), less than 100 nM. Further, the inhibition at 0.1 µM on 11β-HSD1 [2] was 90.3%.

Take `Cc1ccc(-c2ccc([C@H](C)N3CC[C@](CC(C)(C)C#N)(c4ccccc4)OC3=O)cc2)nn1` [EXAMPLE 166, 2,2-dimethyl-3-((R)-3-((S)-1-(4-(6-methylpyridazin-3-yl)phenyl)ethyl)-2-oxo-6-phenyl-1,3-oxazinan-6-yl)propanenitrile]: the IC50 is 0.0023 µM on 11β-HSD1 [1]; 39.5 µM on CYP2C19; 9 µM at CYP2C9 [4]; 20.7 µM at CYP3A4; 1 nM at 11β-HSD1 [2] (setting [6]); less than 100 nM against 11β-HSD1 [2] (setting [7]). Also, at 11β-HSD1 [1], the Shift is on record as 2.3. In addition, the inhibition at 0.1 µM at 11β-HSD1 [2] was found to be 96.5%.

For the molecule `Cc1nnc(-c2ccc([C@H](C)N3CC[C@](CC(C)(C)O)(c4ccccc4)OC3=O)cc2)s1` [EXAMPLE 172, (S)-6-(2-Hydroxy-2-methyl-propyl)-3-{(S)-1-[4-(5-methyl-[1,3,4]thiadiazol-2-yl)-phenyl]-ethyl}-6-phenyl-[1,3]oxazinan-2-one], the IC50 was 0.0106 µM on 11β-HSD1 [1]; 44.4 µM against CYP2C19; 38.1 µM against CYP2C9 [4]; more than 50 µM against CYP3A4; 3.3 nM at 11β-HSD1 [2] (setting [6]); less than 100 nM against 11β-HSD1 [2] (setting [7]). Further, the inhibition at 0.1 µM on 11β-HSD1 [2] came out at 97.9%.
